Data set [1] is described as follows: pH measurement of solutions (pH meter). In kind it is physicochemical. The procedure:
A solution containing disodium EDTA that was pH adjusted using base was prepare by the following method: • 1. Weigh out 300 mg disodium EDTA powder in 30 ml vial, and dissolve in 9.3 mL sterile water. Shake EDTA and sterile water until completely dissolved. QS to 10 ml with water. […] Measure pH, Add 1M NaOH recording volume added and remeasure pH.
A solution containing tetrasodium EDTA pH adjusted with disodium EDTA was prepared by the following method: • 1. Weigh out 300 mg disodium EDTA powder in 30 ml vial, and dissolve in 9.3 mL sterile water. Shake EDTA and sterile water until completely dissolved. QS to 10 ml with water. […] Weigh out 300 mg tetrasodium EDTA powder in 30 ml vial, and dissolve in 9.3 mL sterile water. Shake EDTA and sterile water until completely dissolved. QS to 10 ml with water. […] Measure pH of tetrasodium EDTA and add disodium EDTA recording volume added and pH after each addition • The following solutions were produced:
7. Prepare 19 syringes with 1 mL in each syringe. (1-3 mL sterile syringe can be used) Label the syringes and protect from light. • The pH from seven syringes, sampled randomly, were measured using a pH meter.

The conditions of data set [2]: cited from earlier work; for fraction of EDTA that is tetravalent: 0.1 Molar (Harris 2010).

The structures appear in SMILES notation. Read-outs that look alike come from different tables or passages of the source.

Regarding `O=C([O-])CN(CCN(CC(=O)O)CC(=O)O)CC(=O)[O-].[Na+].[Na+]` [3% disodium EDTA, Ethylenediamine-N,N,N′,N′,-tetraacetic acid, disodium salt], the pH in data set [1] (10 ml 3% disodium EDTA, total volume 1M NaOH added 0) was found to be 4.5; in data set [1] (10 ml 3% disodium EDTA, total volume 1M NaOH added 0.5 ml) it was 4.9; in data set [1] (10 ml 3% disodium EDTA, total volume 1M NaOH added 1.0 ml), 5.4; in data set [1] (10 ml 3% disodium EDTA, total volume 1M NaOH added 1.5 ml) it was 6.9; in data set [1] (10 ml 3% disodium EDTA, total volume 1M NaOH added 1.7 ml), 7.4.

As to `O=C([O-])CN(CCN(CC(=O)[O-])CC(=O)[O-])CC(=O)[O-].[Na+].[Na+].[Na+].[Na+]` [3% tetrasodium EDTA, Ethylenediamine-N,N,N′,N′-tetraacetic acid, tetrasodium salt], the pH was found to be 10.9 in data set [1] (5 ml 3% tetrasodium EDTA, total volume 3% disodium EDTA added 0); 10.2 in data set [1] (5 ml 3% tetrasodium EDTA, total volume 3% disodium EDTA added 1 ml); 9.5 in data set [1] (5 ml 3% tetrasodium EDTA, total volume 3% disodium EDTA added 2 ml); 9.0 in data set [1] (5 ml 3% tetrasodium EDTA, total volume 3% disodium EDTA added 3 ml); 8.8 in data set [1] (5 ml 3% tetrasodium EDTA, total volume 3% disodium EDTA added 4 ml); 8.1 in data set [1] (5 ml 3% tetrasodium EDTA, total volume 3% disodium EDTA added 5 ml). In addition, the pH in data set [1] (5 ml 3% tetrasodium EDTA, total volume 3% disodium EDTA added 6 ml) turned out to be 7.1.

Turning to `O=C([O-])CN(CCN(CC(=O)[O-])CC(=O)O)CC(=O)[O-].[Na+].[Na+].[Na+]` [Trisodium EDTA, Ethylenediamine-N,N,N′,N′,-tetraacetic acid, trisodium salt], the pH in data set [2] (vendor product (Dissolvine NA3-36)) is given as 9.5.

The compound `O=C(O)CN(CCN(CC(=O)O)CC(=O)O)CC(=O)O` [pure tetra-acid EDTA, Ethylenediamine-N,N,N′,N′,-tetraacetic acid] yielded a pH in data set [1] (in water/ethanol, Example 1) of 3.1. In addition, the “fraction of EDTA that is tetravalent” value in data set [2] (pH 6, 20 degrees Celsius) was “about 0.000018”; in data set [2] (pH 8, 20 degrees Celsius), “about 0.0042”.

The values above are taken from patent US20170151373A1, “ANTIMICROBIAL SOLUTIONS WITH ENHANCED STABILITY” (Board of Regents, The University of Texas System, priority 2015, published 2017).
